The values that follow come from ChEMBL document CHEMBL3244065, “Neuroleptics related to butaclamol. An investigation of the effects of chlorine substituents on the aromatic rings” (J Med Chem, 1978).

Data set [1] concerns Rattus norvegicus. Nature of the data set: Neuroleptic activity in ip dosed Sprague-Dawley rat assessed as inhibition of amphetamine-induced stereotyped behaviour administered 15 mins after d-amphetamine challenge. In kind it is functional. Particulars: 0.25 h, read-out: MED.
Data set [2] relates to Rattus norvegicus. Nature of the data set: Neuroleptic activity in ip dosed Sprague-Dawley rat assessed as conditioned active avoidance failure after 30 mins. The class given is functional. Particulars: 0.5 h.
The subject of data set [3] is Rattus norvegicus. Briefly: Neuroleptic activity in ip dosed Sprague-Dawley rat assessed as protection against epinephrine-induced mortality administered 1 hr prior to epinephrine injection. In kind it is functional.
Data set [4] relates to Rattus norvegicus. Nature of the data set: Neuroleptic activity in ip dosed Sprague-Dawley rat assessed as dose required to decrease the continuous (Sidman) lever-pressing response to <50%. The class given is functional.
Data set [5] concerns Rattus norvegicus. Briefly: Toxicity in ip dosed Sprague-Dawley rat assessed as induction of maximum catalepsy. The following applies: in vivo. In kind it is organism-based.

For orientation: ED50 means the dose that gives a 50% effect, or the effect in half of the subjects. As to `CC(C)[C@@]1(O)CCN2C[C@@H]3c4ccccc4CCc4c(Cl)ccc(c43)[C@H]2C1.Cl`, the minimal effective dose with Rattus norvegicus [1] is 10 mg/kg. The figures for the ED50 in the data set on Rattus norvegicus [2] and with Rattus norvegicus [3] were 9 mg/kg and 50 mg/kg, respectively. Besides, the Activity in the data set with Rattus norvegicus [4] was 2.5 mg/kg. Also, the MED in the data set with Rattus norvegicus [5] is 50 mg/kg.

As to `CC(C)[C@@]1(O)CCN2C[C@@H]3c4cccc(Cl)c4CCc4cccc(c43)[C@H]2C1.Cl`, in the data set on Rattus norvegicus [1], the minimal effective dose is 20 mg/kg. For the same molecule, the ED50 with Rattus norvegicus [2] is > 20 mg/kg; with Rattus norvegicus [3] it was 100 mg/kg. Moreover, the Activity with Rattus norvegicus [4] was 20 mg/kg. Also, the MED in the data set on Rattus norvegicus [5] was 100 mg/kg.

Turning to `CC(C)[C@@]1(O)CCN2C[C@@H]3c4ccc(Cl)cc4CCc4cccc(c43)[C@H]2C1.Cl`, the minimal effective dose in the data set on Rattus norvegicus [1] was 1.25 mg/kg. For the same molecule, the ED50 with Rattus norvegicus [2] was 1.1 mg/kg; in the data set on Rattus norvegicus [3] it was 13.9 mg/kg. Moreover, the Activity in the data set with Rattus norvegicus [4] was 0.62 mg/kg. Besides, the MED in the data set with Rattus norvegicus [5] was 12.5 mg/kg.

`CC(C)[C@@]1(O)CCN2C[C@@H]3c4cc(Cl)ccc4CCc4c(Cl)ccc(c43)[C@H]2C1.Cl`: the minimal effective dose with Rattus norvegicus [1] is > 20 mg/kg. Also, in the data set on Rattus norvegicus [3], the ED50 is > 60 mg/kg. Besides, the Activity in the data set with Rattus norvegicus [4] was >5 mg/kg.

Regarding `OCCN1CCN(C2Cc3cc(Cl)ccc3Sc3ccccc32)CC1` (stereo not drawn), in the data set with Rattus norvegicus [1], the minimal effective dose is 20 mg/kg. For the same molecule, the ED50 in the data set on Rattus norvegicus [2] amounted to 4.5 mg/kg; in the data set on Rattus norvegicus [3] it was 0.88 mg/kg. Besides, in the data set with Rattus norvegicus [4], the Activity was determined as 2.5 mg/kg. In addition, the MED in the data set with Rattus norvegicus [5] was > 50 mg/kg.

With `CN1CCN(C2=Nc3cc(Cl)ccc3Nc3ccccc32)CC1` [CLOZAPINE], in the data set with Rattus norvegicus [1], the minimal effective dose was determined as 50 mg/kg. Besides, the results for the ED50 in the data set on Rattus norvegicus [2] and with Rattus norvegicus [3] were 6.8 mg/kg and 2.4 mg/kg, respectively. Moreover, in the data set with Rattus norvegicus [4], the Activity came to 7.5 mg/kg. In the data set on Rattus norvegicus [5], the MED was > 100 mg/kg.

For `CC(C)[C@@]1(O)CCN2C[C@@H]3c4ccccc4CCc4cccc(c43)[C@H]2C1` [DEXCLAMOL], in the data set on Rattus norvegicus [1], the minimal effective dose is 1.25 mg/kg. Besides, the ED50 in the data set with Rattus norvegicus [2] was determined as 0.64 mg/kg; in the data set on Rattus norvegicus [3], 15 mg/kg. Further, the Activity in the data set with Rattus norvegicus [4] was found to be 0.5 mg/kg. Further, in the data set with Rattus norvegicus [5], the MED amounted to 12.5 mg/kg.
